Assay results published in patent US9695154B2, “Heteroaryl inhibitors of sumo activating enzyme” (MILLENNIUM PHARMACEUTICALS, INC., priority 2013, dated 2017).

Target: T1, recombinant human SAE enzyme (Homo sapiens, UniProt Q9UBT2)
T1 sequence (Q9UBT2 1-640): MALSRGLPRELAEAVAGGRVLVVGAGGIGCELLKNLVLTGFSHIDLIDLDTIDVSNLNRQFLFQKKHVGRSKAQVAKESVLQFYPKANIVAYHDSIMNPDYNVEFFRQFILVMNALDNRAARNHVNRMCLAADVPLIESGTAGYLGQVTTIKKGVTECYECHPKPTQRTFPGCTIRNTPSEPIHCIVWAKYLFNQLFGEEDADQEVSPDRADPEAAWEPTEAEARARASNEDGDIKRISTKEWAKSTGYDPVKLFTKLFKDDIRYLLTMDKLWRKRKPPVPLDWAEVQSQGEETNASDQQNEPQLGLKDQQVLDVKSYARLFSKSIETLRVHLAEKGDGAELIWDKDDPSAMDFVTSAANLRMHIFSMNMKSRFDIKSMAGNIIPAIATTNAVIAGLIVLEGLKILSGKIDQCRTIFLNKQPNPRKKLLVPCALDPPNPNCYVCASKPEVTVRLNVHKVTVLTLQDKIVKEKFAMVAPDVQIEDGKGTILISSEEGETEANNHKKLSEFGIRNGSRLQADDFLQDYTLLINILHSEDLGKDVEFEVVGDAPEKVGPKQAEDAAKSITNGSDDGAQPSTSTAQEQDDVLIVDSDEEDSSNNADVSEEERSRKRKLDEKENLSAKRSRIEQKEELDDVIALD
T1 sequence (Q9UBE0 1-346 partner): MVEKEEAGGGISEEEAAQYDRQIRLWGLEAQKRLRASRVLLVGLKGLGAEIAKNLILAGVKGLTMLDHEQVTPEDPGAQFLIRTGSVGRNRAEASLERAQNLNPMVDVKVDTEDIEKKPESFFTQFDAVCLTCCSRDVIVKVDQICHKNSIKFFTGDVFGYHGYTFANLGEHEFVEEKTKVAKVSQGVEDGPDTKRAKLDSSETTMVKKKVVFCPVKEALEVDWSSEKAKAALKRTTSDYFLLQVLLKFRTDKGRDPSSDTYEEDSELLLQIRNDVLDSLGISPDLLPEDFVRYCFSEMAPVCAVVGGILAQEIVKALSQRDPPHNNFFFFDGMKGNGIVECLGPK
Test: SAE HTRF Enzyme Assay
Type: biochemical
Settings: for IC50: class symbols A-C; for inhibition at 0.111 µM: read-out: Percent Inhibition
In short: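 Reaction with 0.11 nM recombinant human SAE, 0.5 μM ATP, 0.01 μM Ubc9-GST, 0.125 μM Sumo-Flag in HEPES pH 7.5, MgCl2, GSH, BSA, 105 min at 24 °C. Stopped with EDTA/KF buffer carrying Eu-anti-Flag and anti-GST-APC; HTRF read after 2 h; % inhibition or IC50.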

[1] = compound concentration 0.111 μM

Structure (SMILES)	IC50 [nM]	inhibition at 0.111 µM [1] [%]	Percent Inhibition (compound concentration 0.111 μM, 0.111 µM) [%]
CC(c1ccc(Cl)o1)n1ccc(C(=O)c2cncnc2N[C@@H]2C[C@H](COS(N)(=O)=O)[C@@H](O)[C@@H]2F)c1 (single isomer, unassigned) [Compound I-350, [(1R,2R,3R,4R)-4-{[5-({1-[(1S)-1-(5-chloro-2-furyl)ethyl]-1H-pyrrol-3-yl}carbonyl)pyrimidin-4-yl]amino}-3-fluoro-2-hydroxycyclopentyl]methyl sulfamate or [(1R,2R,3R,4R)-4-{[5-({1-[(1R)-1-(5-chloro-2-furyl)ethyl]-1H-pyrrol-3-yl}carbonyl)pyrimidin-4-yl]amino}-3-fluoro-2-hydroxycyclopentyl]methyl sulfamate]	< 10	96	–
NS(=O)(=O)OC[C@H]1C[C@@H](Nc2ncncc2C(=O)c2ccn(Cc3cn4ccccc4n3)n2)C[C@@H]1O [Compound I-214, {(1R,2S,4R)-2-hydroxy-4-[(5-{[1-(imidazo[1,2-a]pyridin-2-ylmethyl)-1H-pyrazol-3-yl]carbonyl}pyrimidin-4-yl)amino]cyclopentyl}methyl sulfamate]	< 10	98	–
Cc1cccc(Cn2nc(C(=O)c3cncnc3N[C@@H]3C[C@H](COS(N)(=O)=O)[C@@H](O)C3)cc2C)c1 [Compound I-248, {(1R,2S,4R)-2-hydroxy-4-[(5-{[5-methyl-1-(3-methylbenzyl)-1H-pyrazol-3-yl]carbonyl}pyrimidin-4-yl)amino]cyclopentyl}methyl sulfamate]	< 10	99	–
NS(=O)(=O)OC[C@H]1C[C@@H](Nc2ncncc2C(=O)c2cc(Cl)n(Cc3ccc(F)c(Br)c3)c2)[C@@H](F)[C@@H]1O [Compound I-320, {(1R,2R,3R,4R)-4-[(5-{[1-(3-bromo-4-fluorobenzyl)-5-chloro-1H-pyrrol-3-yl]carbonyl}pyrimidin-4-yl)amino]-3-fluoro-2-hydroxycyclopentyl}methyl sulfamate]	< 10	98	–
NS(=O)(=O)OC[C@H]1C[C@@H](Nc2ccncc2C(=O)c2ccn(Cc3cccc(C(F)(F)F)c3)n2)C[C@@H]1O [Compound I-262, [(1R,2S,4R)-2-hydroxy-4-{[3-({1-[3-(trifluoromethyl)benzyl]-1H-pyrazol-3-yl}carbonyl)pyridin-4-yl]amino}cyclopentyl]methyl sulfamate]	< 10	96	–
NS(=O)(=O)OC[C@H]1C[C@@H](Nc2ncncc2C(=O)c2ccn(Cc3csc4ccc(Cl)cc34)c2)C[C@@H]1O [Compound I-341, [(1R,2S,4R)-4-{[5-({1-[(5-chloro-1-benzothiophen-3-yl)methyl]-1H-pyrrol-3-yl}carbonyl)pyrimidin-4-yl]amino}-2-hydroxycyclopentyl]methyl sulfamate]	< 10	98	–
NS(=O)(=O)OC[C@H]1C[C@@H](Nc2ncncc2C(=O)c2ccn(Cc3ccc(F)c(I)c3)n2)C[C@@H]1O [Compound I-245, {(1R,2S,4R)-4-[(5-{[1-(4-fluoro-3-iodobenzyl)-1H-pyrazol-3-yl]carbonyl}pyrimidin-4-yl)amino]-2-hydroxycyclopentyl}methyl sulfamate]	< 10	100	–
NS(=O)(=O)OC[C@H]1C[C@@H](Nc2ncncc2C(=O)c2ccn(Cc3cccc(N4CCOCC4)c3)n2)C[C@@H]1O [Compound I-251, [(1R,2S,4R)-2-hydroxy-4-{[5-({1-[3-(morpholin-4-yl)benzyl]-1H-pyrazol-3-yl}carbonyl)pyrimidin-4-yl]amino}cyclopentyl]methyl sulfamate]	10 to 100	71	–
Cc1cc(C(=O)c2cncnc2N[C@@H]2C[C@H](COS(N)(=O)=O)[C@@H](O)C2)nn1Cc1cccc(Br)n1 [Compound I-238, [(1R,2S,4R)-4-{[5-({1-[(6-bromopyridin-2-yl)methyl]-5-methyl-1H-pyrazol-3-yl}carbonyl)pyrimidin-4-yl]amino}-2-hydroxycyclopentyl]methyl sulfamate]	< 10	99	–
NS(=O)(=O)OC[C@H]1C[C@@H](Nc2ncncc2C(=O)c2ccn(Cc3ccc(C(F)(F)F)c(F)c3)n2)[C@H](O)[C@@H]1O [Compound I-46, [(1R,2R,3S,4R)-4-{[5-({1-[3-fluoro-4-(trifluoromethyl)benzyl]-1H-pyrazol-3-yl}carbonyl)pyrimidin-4-yl]amino}-2,3-dihydroxycyclopentyl]methyl sulfamate]	< 10	96	–
NS(=O)(=O)OC[C@H]1C[C@@H](Nc2ncncc2C(=O)c2ccn(CC3=CCCOC3)n2)C[C@@H]1O [Compound I-145, {(1R,2S,4R)-4-[(5-{[1-(5,6-dihydro-2H-pyran-3-ylmethyl)-1H-pyrazol-3-yl]carbonyl}pyrimidin-4-yl)amino]-2-hydroxycyclopentyl}methyl sulfamate]	10 to 100	65	–
NS(=O)(=O)OC[C@H]1C[C@@H](Nc2ncncc2C(=O)c2ccn(Cc3cc4ccccc4o3)c2)[C@@H](F)[C@@H]1O [Compound I-110, {(1R,2R,3R,4R)-4-[(5-{[1-(1-benzofuran-2-ylmethyl)-1H-pyrrol-3-yl]carbonyl}pyrimidin-4-yl)amino]-3-fluoro-2-hydroxycyclopentyl}methyl sulfamate]	< 10	99	–
NS(=O)(=O)OC[C@H]1C[C@@H](Nc2ncncc2C(=O)c2ccn(Cc3cccc(Cl)c3)c2)[C@@H](F)[C@@H]1O [Compound I-147, {(1R,2R,3R,4R)-4-[(5-{[1-(3-chlorobenzyl)-1H-pyrrol-3-yl]carbonyl}pyrimidin-4-yl)amino]-3-fluoro-2-hydroxycyclopentyl}methyl sulfamate]	< 10	> 99	–
NS(=O)(=O)OC[C@H]1C[C@@H](Nc2ncncc2C(=O)c2ccn(Cc3ccccc3C(F)(F)F)n2)[C@H](O)[C@@H]1O [Compound I-182, [(1R,2R,3S,4R)-2,3-dihydroxy-4-{[5-({1-[2-(trifluoromethyl)benzy1]-1H-pyrazol-3-yl}carbonyl)pyrimidin-4-yl]amino}cyclopentyl]methyl sulfamate]	< 10	96	–
CC(c1ccc(C(F)(F)F)o1)n1ccc(C(=O)c2cncnc2N[C@@H]2C[C@H](COS(N)(=O)=O)[C@@H](O)[C@@H]2F)c1 (single isomer, unassigned) [Compound I-357, [(1R,2R,3R,4R)-3-fluoro-2-hydroxy-4-({5-[(1-{(1S)-1-[5-(trifluoromethyl)-2-furyl]ethyl}-1H-pyrrol-3-yl)carbonyl]pyrimidin-4-yl}amino)cyclopentyl]methyl sulfamate or [(1R,2R,3R,4R)-3-fluoro-2-hydroxy-4-({5-[(1-{(1R)-1-[5-(trifluoromethyl)-2-furyl]ethyl}-1H-pyrrol-3-yl)carbonyl]pyrimidin-4-yl}amino)cyclopentyl]methyl sulfamate]	< 10	–	100
NS(=O)(=O)OC[C@H]1C[C@@H](Nc2ncncc2C(=O)c2cc(CO)n(Cc3ccccc3)n2)C[C@@H]1O [Compound I-335, {(1R,2S,4R)-4-[(5-{[1-Benzyl-5-(hydroxymethyl)-1H-pyrazol-3-yl]carbonyl}pyrimidin-4-yl)amino]-2-hydroxycyclopentyl}methyl sulfamate]	< 10	97	–
NS(=O)(=O)OC[C@H]1C[C@@H](Nc2ncncc2C(=O)c2ccn(CC3=CCCCC3)n2)C[C@@H]1O [Compound I-252, {(1R,2S,4R)-4-[(5-{[1-(cyclohex-1-en-1-ylmethyl)-1H-pyrazol-3-yl]carbonyl}pyrimidin-4-yl)amino]-2-hydroxycyclopentyl}methyl sulfamate]	< 10	97	–
CC(C)(O)c1cc(C(=O)c2cncnc2N[C@@H]2C[C@H](COS(N)(=O)=O)[C@@H](O)C2)nn1Cc1cccc(Br)c1 [Compound I-367, {(1R,2S,4R)-4-[(5-{[1-(3-bromobenzyl)-5-(2-hydroxypropan-2-yl)-1H-pyrazol-3-yl]carbonyl}pyrimidin-4-yl)amino]-2-hydroxycyclopentyl}methyl sulfamate]	< 10	99	–
CC(C)(O)c1cccc(Cn2ccc(C(=O)c3cncnc3N[C@@H]3C[C@H](COS(N)(=O)=O)[C@@H](O)C3)n2)n1 [Compound I-109, [(1R,2S,4R)-2-hydroxy-4-({5-[(1-{[6-(2-hydroxypropan-2-yl)pyridin-2-yl]methyl}-1H-pyrazol-3-yl)carbonyl]pyrimidin-4-yl}amino)cyclopentyl]methyl sulfamate]	10 to 100	76	–
